Entries after “also recorded” stand apart in the source; their conditions may differ. Read-outs that look alike come from different tables or passages of the source.
How the values were obtained:
Tlp2 [1] = molecular target: T1, Tlp2 (Campylobacter jejuni, UniProt Q0PBZ3); format: binding
Experimental: (§1) Glycan (>400 monosaccharides or complex glycans) and small molecule arrays containing amino acids and salts were performed as described previously by Day et al. ([67]). Briefly, 1 μg of purified recombinant protein was complexed with anti-His antibody (Cell Signaling Technology) and rabbit anti-mouse/goat anti-rabbit Alexa 555-IgG (Thermo Scientific) at a molar ratio of 1:0.5:0.25 and then incubated on the array for […] in phosphate-buffered saline (PBS). The array slides were scanned at 488/520 nm and analyzed using InnoScan 1100 with MAPIX software. All arrays were performed in triplicate with a total of 12 data points for each glycan tested; the complete data set and MIRAGE (i.e., minimum information regarding a glycomics experiment) results are shown in Tables S3 and S8.
(§2) Table S8 - Supplementary glycan microarray document based on M IRAGE guidelines. D O I:
(§3) Classification Guidelines
(§4) 1. Sample: Glycan Binding Sample
(§5) Origin: Helicobacter pylori SS1; produced as a recombinant His - tagged protein in E.
(§6) The preparation of Tlp2,3, and 4 is explained in the Materials and Methods section:
(§7) Expression and purification of the periplasmic domain of Tlp2,3, and 4.
(§8) Sample Sample is a His Tagged protein containing only the periplasmic receptor domain of the modifications full length Tlp2,3, and 4transmembrane protein.
(§9) Please see Materials and Methods: Tlps 2/3/4 bind to a range of ligands, including […]
(§10) Proteins were complexed with mouse anti- his antibody, with secondary and tertiary AlexaFluor555 antibodies (rabbit anti-mouse, goat anti-rabbit) at a molar ratio of 4:2:1.
(§11) The protein/antibody complex was incubated on ice for 10 mins prior to placing on the Assay protocol array. Arrays were performed with 1 µg of complexed protein incubated on the array for 20 min. Arrays were then washed 3 times in Array PBS (PBS + 2mM MgCl2 + 2mM CaCl2) then dried by centrifugation for 3 min at 300 x g . Scanning was performed us ing an Innopsys InnoScan 1100AL and analyzed using Mapix (Innopsys). Yes/no binding was determined by six positive replicate spots in three replicate experiments. Positive […]
(§12) Glycan Glycans in this study are listed in Table S2 and is a published library in doi:
(§13) Glycans were prepared in one of two ways for printing:
(§14) Glycan 1. Glycans (with IDs in number/letter format; e.g. 1A, 4C, 7K) were sourced modifications commercially from Dextra Laboratories, Elicityl and Carbosythn and were made into glycoamines using the protocol published in Day et al 2009 (doi:
(§15) Glycan arrays: We only use glycan arrays as a yes/no binding tool. Due to this we look only at binding that is unambiguously above background vs lack of binding above background. Average background + 3x standard deviation of the background of 20 sets of 4 spots of DMF:DMSO only spots is applied to determine if binding observed is […]
(§16) Only spots with values equal to or greater than this value were considered as binding from data of any tested slide. These values are slide […]
(§17) Data Small molecule arrays: We only use amino acid arrays as a yes/no binding tool. Due interpretation to this we look only at binding that is unambiguously above background vs lack of binding above background. Average background + 3x standard deviation of the background of 6 spots of PBS + 2% glycerol only spots is applied to determine if […]
(§18) Only spots with values equal to or greater than this value were considered as binding from data of any tested slide. These values are slide dependent. […]

Tlp4 [2] = molecular target: T2, Tlp4 (Campylobacter jejuni, UniProt Q0PBP3); format: binding
Experimental: as §1, §2, §3, §4, §5, §6, §7, §8, §9, §10, §11, §12, §13, §14, §15, §16, §17, §18

Tlp2 [3] = molecular target: T1, Tlp2; test: biochemical; format: binding
Experimental: (§19) His-tagged proteins (Tlp2, -3, and -4) were prepared as previously described ([11]) DNA segments encoding the periplasmic sensory domains (33 to 286 amino acids) of Tlp2 and (38 to 297 amino acids) of Tlp4 were amplified (see Table S7), ligated into pGEM-T Easy (Promega) and subcloned into pET-19b (Novagen) (see Table S6). Recombinant proteins were expressed in E. coli BL21(DE3) using 1 mM IPTG (isopropyl-β-D-thiogalactopyranoside) and purified using His-select-nickel chromatography as described previously ([8], [11]). The purity of the proteins was confirmed by SDS-PAGE and Western blot analysis with anti-His antibodies (Bio-Rad). Protein concentrations were determined using a NanoDrop spectrophotometer (Thermo Fisher).
(§20) Surface plasmon resonance (SPR) experiments were performed as described previously ([10], [11]) with the following modifications. Briefly, purified proteins were diluted to 0.15 μM in sodium acetate (pH 4.0) and immobilized onto an active flow cell of a CM5 sensor chip with a flow rate of 5 μL/min for 7 min of contact time using a standard amine coupling protocol. Immobilized protein levels for all three proteins ranged from 6028.3 to 9779.3 response units (RU) providing a minimum expected response maximum (RMax) between 20 and 50 RU for the small molecules tested. […] All ligands were prepared in PBS (pH 7.2) and serially diluted from 0.2 to 0.0125 mM. A 10-min dissociation period was allocated after the introduction of each analyte. SPR experiments were performed in single-cycle kinetics mode using the BIAcore S200 biosensor system (Cytiva) at 25°C in PBS (pH 7.2) at a flow rate of 30 μL/min. The equilibrium dissociation constant (KD) for each analyte was determined using BIAcore S200 Evaluation software with a report point 4 s after the injection stop to account for the bulk transfer of the small molecule against a large amount of immobilized protein (as shown in Fig. S5).

Tlp4 [4] = molecular target: T2, Tlp4; test: biochemical; format: binding
Experimental: as §19, §20

Tlp3 [5] = molecular target: T3, Tlp3 (Campylobacter jejuni, UniProt Q0P864); test: biochemical; format: binding
Experimental: as §19, with “The purity of the proteins was confirmed by SDS-PAGE and Western blot analysis with anti-His antibodies (Bio-Rad).” left out
Surface plasmon resonance (SPR) experiments were performed as described previously ([10], [11]) with the following modifications. […] All ligands were prepared in PBS (pH 7.2) and serially diluted from 0.2 to 0.0125 mM. A 10-min dissociation period was allocated after the introduction of each analyte. SPR experiments were performed in single-cycle kinetics mode using the BIAcore S200 biosensor system (Cytiva) at 25°C in PBS (pH 7.2) at a flow rate of 30 μL/min. The equilibrium dissociation constant (KD) for each analyte was determined using BIAcore S200 Evaluation software with a report point 4 s after the injection stop to account for the bulk transfer of the small molecule against a large amount of immobilized protein (as shown in Fig. S5).

Tlp3 [6] = molecular target: T3, Tlp3; test: Glycan/small molecule arrays with Tlp3; details: yes/no binding
Experimental: as §1, §2, §3, §4, §5, §6, §7, §8, §9, §10, §11, §12, §13, §14, §15, §16, §17, §18

Tlp2 [7] = format: cell-based, C. jejuni 11168-O; details: nutrient-depleted chemotaxis assay
Experimental: (§21) The biological relevance of the binding specificities of the Tlp2,3,4 cluster was assessed by examining chemotactic responses of C. jejuni 11168-O tlp2, tlp3, and tlp4 wild-type (WT) and mutant strains using a nutrient-depleted chemotaxis assay. All ligands, with the exception of lysine and cysteine, interacted with Tlp2 and Tlp4 as attractants (Table 1), showing an ~1- to ~2-log decrease (P < 0.05) in migration toward the ligand compared to the WT strain.
(§22) Chemotaxis assays—the nutrient-depleted chemotaxis assay and the modified hard agar plug assay (tHAP)—were performed as previously described ([11], [34]). The chemotactic responses of all isogenic strains were compared to that of the C. jejuni 11168-O wild-type strain to distinguish between chemoattractants and chemorepellents. For the nutrient-depleted chemotaxis and modified hard agar plug (tHAP) assays, all differences were calculated as changes on a log10 scale. Controls were provided by using nonmotile (C. jejuni 81116 flaAB) and nonchemotactic (C. jejuni NCTC 11168 cheY) mutants ([69]) and mucin as negative and positive controls ([10]).

Tlp3^LBD D169A = Tlp3^LBD D169A (Campylobacter jejuni, UniProt Q0P864, D169A); test: biochemical
Tlp3 [8] = format: cell-based, C. jejuni 11168-O; details: chemotaxis of mutant compared to WT strain
Experimental: as §21, §22

Tlp3^LBD W151A = Tlp3^LBD W151A (Campylobacter jejuni, UniProt Q0P864, W151A); test: biochemical
Tlp3^LBD K149A = Tlp3^LBD K149A (Campylobacter jejuni, UniProt Q0P864, K149A); test: biochemical
Tlp3^LBD D170A = Tlp3^LBD D170A (Campylobacter jejuni, UniProt Q0P864); test: biochemical
Tlp3^LBD D196A = Tlp3^LBD D196A (Campylobacter jejuni, UniProt Q0P864, D196A); test: biochemical
WT Tlp3^LBD = test: SPR competition assay (A-B-A inject); format: binding, Campylobacter jejuni; details: 15 seconds after injection-B; glucose 300 µM, fucose 300 μM, malic acid 200 μM
Experimental: . Competition A-B-A analyses determine the specificity of the potential ligand-binding site preferences of WT Tlp3^LBD. The bound protein is saturated with the first analyte (A), followed by the introduction of a second analyte (B); the assay is designed to show whether a cumulative response is observed after the second analyte (B) is added. A cumulative response indicates two independent binding sites, whereas the lack of a cumulative response indicates a single site where ligands compete for binding, i.e., when analyte A occupies a ligand binding site, analyte B cannot bind. […] All response data were normalized to a 100-Da molecular weight for each analyte, allowing direct comparison of the responses. Both actual RU values and theoretical values are recorded for comparison.
Figure S6. […] A) Injections are […]
at 300 μM for 60 seconds). Final responses units (RU) of injections are recorded (indicated by dashed vertical […]
81 at 15 s econds after injection- B and l fu cose […]
and fucose were compet ed was 4.4 RU ± 0.46. As this value sits be low 5 RU, it indicates direct competition for […]
Final respons es units (RU) of injections ar e re cor ded (indicated […]
As this value sits between
5.07- 13.5 RU, it indicates direct competition for the same site with glucos e replacing some of the bound malic acid during the 60 second injection- B.

[9] = SPR KD, mean ± SD, NB = no binding, read-out: Tlp2 Affinity
[10] = SPR KD, mean ± SD, NB = no binding, read-out: Tlp4 Affinity
[11] = SPR KD, mean ± SD, NB = no binding, read-out: Tlp3 Affinity

T1 sequence (Q0PBZ3 entry or part of it): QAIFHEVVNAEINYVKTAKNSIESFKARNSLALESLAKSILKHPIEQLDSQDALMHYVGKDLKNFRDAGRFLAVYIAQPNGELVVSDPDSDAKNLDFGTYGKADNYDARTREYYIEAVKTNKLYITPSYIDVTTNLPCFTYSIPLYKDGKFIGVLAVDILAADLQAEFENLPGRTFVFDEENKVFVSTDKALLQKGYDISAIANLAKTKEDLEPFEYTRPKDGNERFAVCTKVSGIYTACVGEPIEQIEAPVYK
T2 sequence (Q0PBP3 entry or part of it): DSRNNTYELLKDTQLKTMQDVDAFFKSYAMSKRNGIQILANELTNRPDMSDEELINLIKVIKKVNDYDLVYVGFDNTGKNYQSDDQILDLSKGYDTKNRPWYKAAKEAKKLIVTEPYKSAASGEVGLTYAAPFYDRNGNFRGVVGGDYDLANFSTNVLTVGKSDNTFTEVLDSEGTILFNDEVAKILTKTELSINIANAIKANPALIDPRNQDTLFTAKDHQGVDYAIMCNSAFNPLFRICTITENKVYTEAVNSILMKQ
T3 sequence (Q0P864 entry or part of it): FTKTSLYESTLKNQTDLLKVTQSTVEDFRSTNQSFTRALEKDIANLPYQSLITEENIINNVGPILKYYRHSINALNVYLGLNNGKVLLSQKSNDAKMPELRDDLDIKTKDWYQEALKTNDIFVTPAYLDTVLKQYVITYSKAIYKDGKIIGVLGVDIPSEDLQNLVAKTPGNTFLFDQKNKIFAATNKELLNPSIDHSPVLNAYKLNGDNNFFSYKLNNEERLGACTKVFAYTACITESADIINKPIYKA
Sequence of Tlp3^LBD K149A (Q0P864 41-290 K149A): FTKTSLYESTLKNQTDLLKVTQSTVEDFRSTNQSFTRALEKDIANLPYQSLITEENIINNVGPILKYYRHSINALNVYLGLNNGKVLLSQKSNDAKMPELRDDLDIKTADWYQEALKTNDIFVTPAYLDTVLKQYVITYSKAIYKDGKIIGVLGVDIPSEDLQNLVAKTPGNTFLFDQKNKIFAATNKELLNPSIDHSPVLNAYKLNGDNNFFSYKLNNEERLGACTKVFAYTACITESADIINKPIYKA
Sequence of Tlp3^LBD D170A (Q0P864 41-290 T170A): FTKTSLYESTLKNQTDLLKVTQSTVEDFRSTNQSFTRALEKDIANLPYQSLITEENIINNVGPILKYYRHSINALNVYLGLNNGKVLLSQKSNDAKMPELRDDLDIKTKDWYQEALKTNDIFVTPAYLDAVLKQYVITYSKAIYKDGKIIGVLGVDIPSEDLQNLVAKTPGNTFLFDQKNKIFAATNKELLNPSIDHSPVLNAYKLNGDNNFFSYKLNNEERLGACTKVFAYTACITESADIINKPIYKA
Sequence of Tlp3^LBD D196A (Q0P864 41-290 D196A): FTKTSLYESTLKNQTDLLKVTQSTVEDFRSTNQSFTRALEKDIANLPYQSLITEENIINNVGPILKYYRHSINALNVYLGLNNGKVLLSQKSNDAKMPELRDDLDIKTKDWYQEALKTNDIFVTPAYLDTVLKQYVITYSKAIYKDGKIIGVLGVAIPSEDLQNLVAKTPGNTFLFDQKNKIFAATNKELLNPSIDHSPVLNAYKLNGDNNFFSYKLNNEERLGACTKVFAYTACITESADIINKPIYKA
Sequence of Tlp3^LBD D169A (Q0P864 41-290 D169A): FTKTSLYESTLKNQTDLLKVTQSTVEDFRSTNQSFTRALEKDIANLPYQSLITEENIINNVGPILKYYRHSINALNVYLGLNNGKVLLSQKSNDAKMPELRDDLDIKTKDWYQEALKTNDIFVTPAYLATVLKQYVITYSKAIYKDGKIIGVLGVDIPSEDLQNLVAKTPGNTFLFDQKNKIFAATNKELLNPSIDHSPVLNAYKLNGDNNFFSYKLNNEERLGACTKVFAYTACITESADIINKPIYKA
Sequence of Tlp3^LBD W151A (Q0P864 41-290 W151A): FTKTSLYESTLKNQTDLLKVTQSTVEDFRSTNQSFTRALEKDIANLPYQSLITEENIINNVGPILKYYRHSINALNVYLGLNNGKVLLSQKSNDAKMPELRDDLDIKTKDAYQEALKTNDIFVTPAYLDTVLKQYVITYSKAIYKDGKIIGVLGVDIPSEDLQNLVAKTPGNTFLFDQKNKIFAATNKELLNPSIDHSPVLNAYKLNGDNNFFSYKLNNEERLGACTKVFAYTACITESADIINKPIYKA

NC(=O)C[C@H](N)C(=O)O [Asparagine]
binding to Tlp2 on glycan/small molecule array (Tlp2 [1]; yes/no binding): bound
binding to Tlp4 on glycan/small molecule array (Tlp4 [2]; yes/no binding): bound
Kd (Tlp2 [3]; [9]): 12.8 ± 5.1 µM
Kd (Tlp4 [4]; [10]): 45.1 ± 6.1 µM
Kd (Tlp3 [5]; [11]): > 200 µM

N[C@@H](CC(=O)O)C(=O)O [Aspartate]
binding to Tlp2 on glycan/small molecule array (Tlp2 [1]): bound
binding to Tlp4 on glycan/small molecule array (Tlp4 [2]): bound
binding to Tlp3 on glycan/small molecule array (Tlp3 [6]): bind specifically
Kd (Tlp2 [3]): 95.4 ± 0.9 µM
Kd (Tlp4 [4]): 75.3 ± 8.1 µM

N[C@@H](CS)C(=O)O [Cysteine]
binding to Tlp2 on glycan/small molecule array (Tlp2 [1]; yes/no binding): bound
binding to Tlp4 on glycan/small molecule array (Tlp4 [2]; yes/no binding): bound
chemotactic response via Tlp2 (Tlp2 [7]): did not generate any significant chemotactic response; also recorded: did not affect the chemotactic movement
Kd (Tlp2 [3]; [9]): 10.8 ± 3.3 µM
Kd (Tlp4 [4]; [10]): 5.7 ± 5.8 µM
Kd (Tlp3 [5]; [11]): > 200 µM

O=C[C@H](O)[C@@H](O)[C@@H](O)[C@H](O)CO [Galactose]
binding to Tlp2 on glycan/small molecule array (Tlp2 [1]): interacted
binding to Tlp4 on glycan/small molecule array (Tlp4 [2]): interacted
binding to Tlp3 on glycan/small molecule array (Tlp3 [6]): interacted
Kd (Tlp2 [3]): 17.2 ± 1.3 µM
Kd (Tlp4 [4]): 18.3 ± 2.1 µM

N[C@H]1C(O)O[C@H](CO)[C@@H](O)[C@@H]1O (stereo partly drawn) [Glucosamine]
Kd (Tlp3^LBD D169A): 38.4 ± 6.45 µM
Tlp3 CR (chemoresponse) (Tlp3 [8]): R
Kd (Tlp3^LBD W151A): 34.3 ± 12.7 µM
Kd (Tlp3^LBD K149A): 24.3 ± 2.1 µM
Kd (Tlp3^LBD D170A): 39.7 ± 8.6 µM
Kd (Tlp3^LBD D196A): 45.5 ± 7.3 µM
Kd (Tlp2 [3]; [9]): > 200 µM
Kd (Tlp4 [4]; [10]): > 200 µM
Kd (Tlp3 [5]): 7.1 ± 2.9 µM

CC[C@H](C)[C@H](N)C(=O)O [Isoleucine]
Kd (Tlp2 [3]; [9]): > 200 µM
Kd (Tlp4 [4]; [10]): > 200 µM

O=C(O)CC(O)C(=O)O (stereo not drawn) [Malic acid]
SPR response of single analyte (WT Tlp3^LBD): 13.5 RU
Kd (Tlp2 [3]; [9]): > 10000 µM
Kd (Tlp4 [4]; [10]): > 10000 µM

CSCC[C@H](N)C(=O)O [Methionine]
binding to Tlp2 on glycan/small molecule array (Tlp2 [1]): bound
binding to Tlp4 on glycan/small molecule array (Tlp4 [2]): bound
Kd (Tlp2 [3]): 1.9 ± 1.2 µM
Kd (Tlp4 [4]): 6 ± 4.7 µM
Kd (Tlp3 [5]; read-out: Tlp3 Affinity): > 200 µM

N[C@@H](CO)C(=O)O [Serine]
binding to Tlp2 on glycan/small molecule array (Tlp2 [1]; yes/no binding): bound
binding to Tlp4 on glycan/small molecule array (Tlp4 [2]; yes/no binding): bound
Kd (Tlp2 [3]; [9]): 6.9 ± 2.4 µM
Kd (Tlp4 [4]; [10]): 14.3 ± 3.2 µM
Kd (Tlp3 [5]; [11]): > 200 µM

Reference: article PMC9769880, “Diverse Sensory Repertoire of Paralogous Chemoreceptors Tlp2, Tlp3, and Tlp4 in Campylobacter jejuni” (Microbiology Spectrum, 2022)
